US11344601B2, “Tumor microenvironment-related target TAK1 and application thereof in inhibition of tumor” (Shanghai Institutes for Biological Sciences, Chinese …, priority 2017, dated 2022)

Experiments:
[1] = test system: PC3/PSC27 xenograft tumors; experiment: Time-extended preclinical treatment, survival of PC3/PSC27 tumor-bearing mice; format: in vivo
Method: In the preclinical chemotherapy trial, mice subcutaneously transplanted with tumors were fed standard experimental diet. After 2 weeks, the chemotherapeutics mitoxantrone (dose of 0.2 mg/kg) and/or SASP inhibitors (500 μl, dose of 10 mg/kg, RAD001, SB203580 and 5Z-7 were purchased from Tocris; LYTAK, purchased from Lilly Co ((Indianapolis, Ind.), 5 mg/kg) were administrated intraperitoneally. The timepoint was the first day of Week 3, 5, 7, and the whole course of treatment was composed of three cycles of administration, each cycle lasted for 2 weeks. After the course of treatment, mouse […] was collected for tumor measurement and histological analysis. Each mouse received cumulatively 0.6 mg mitoxantrone/kg body weight and 30 mg SASP inhibitor/kg body (15 mg/kg body weight for LYTAK1). […]
Although there was no ectopic metastasis of cancer cells, the current inventor questions whether the microenvironment causes other pathological consequences other than tumor growth and drug resistance. To this end, the present inventor evaluated the survival of multiple groups of animals under a batch of time-extended preclinical treatment conditions to determine the objective results of tumor progression. All animals were monitored for tumor volume and recognized as severe disease when the tumor volume reached a certain upper limit (size 2000 mm^3).

TAK1 = target: T1, TAK1 (Homo sapiens, UniProt O43318); experiment: IP, in vitro kinase assay and Western blot of TAK1 activation in damaged PSC27 stromal cells; format: cell-based
T1 construct: PSC27 cells were treated with bleomycin and cell lysates were subject to anti-p-TAK1-mediated IP precipitation; endogenous in cells; host or cells: PSC27 human prostate stromal cells
T1 sequence (O43318 1-606): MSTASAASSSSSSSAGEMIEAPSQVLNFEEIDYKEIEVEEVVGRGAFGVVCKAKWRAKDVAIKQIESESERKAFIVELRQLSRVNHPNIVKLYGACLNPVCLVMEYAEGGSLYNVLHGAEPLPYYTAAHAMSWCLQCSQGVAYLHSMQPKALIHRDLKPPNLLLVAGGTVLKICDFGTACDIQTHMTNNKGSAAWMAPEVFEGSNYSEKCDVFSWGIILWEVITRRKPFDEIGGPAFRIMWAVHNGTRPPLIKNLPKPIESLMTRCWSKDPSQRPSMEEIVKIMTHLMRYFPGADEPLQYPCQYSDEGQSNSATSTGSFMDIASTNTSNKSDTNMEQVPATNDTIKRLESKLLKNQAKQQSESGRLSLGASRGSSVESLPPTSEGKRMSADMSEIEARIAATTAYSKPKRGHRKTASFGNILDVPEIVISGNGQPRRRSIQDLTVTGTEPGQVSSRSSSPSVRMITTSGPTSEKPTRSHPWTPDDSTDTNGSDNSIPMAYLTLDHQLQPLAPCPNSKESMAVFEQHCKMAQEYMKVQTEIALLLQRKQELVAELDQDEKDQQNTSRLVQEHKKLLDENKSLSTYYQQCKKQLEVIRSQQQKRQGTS
Method: In the presence of the TAK1 inhibitor 5Z-7, PSC27 cells were treated with bleomycin and cell lysates were subject to anti-p-TAK1-mediated IP precipitation. IP products were analyzed by in vitro kinase assay, and MKK6 was used as TAK1 substrate. p38 phosphorylation was analyzed by Western blot with GAPDH as the loading control. In addition, IL-1α (20 ng/ml) was used to treat stromal cells and was further analyzed by similar IP and in vitro kinase assay.

NF-κB complex = experiment: NF-κB activation in bleomycin-treated stromal cells (nuclear translocation, luciferase reporter); format: cell-based, human
Method: FIG. 22. The stromal cells pre-transduced with the NF-κB transcriptional luciferase reporter vector were treated with bleomycin and/or RAD001. The cells were collected on Day 7 and detected for the fluorescence signal intensity of the reporter vector.
FIG. 32. Detection of NF-kB transcriptional activity based on the reporter vector. Stromal cells were treated with bleomycin along with the PI3K small molecule inhibitor LY294002 (1 μM), Akt inhibitor MK-2206 (100 nM), mTOR inhibitor RAD001 (50 nM), p38 inhibitor SB203580 (10 μM) and TAK1 inhibitor 5Z-7 (500 nM), respectively, and cell lysates were used for determining luciferase activity.
The […] vector pBABE-puro-IκBα-mut (Super repressor) containing two phosphorylated mutant sites of IKK at S32A and S34A on the IκBα protein encoding sequence were used for transfection of lentivirus-packing cell line phoenix. Lentiviruses were subsequently used to infect PSC27 stromal cell line, whereas 1 μg/ml puromycin was used to screen positive clones. As another method, 5 μm of the small molecule inhibitor Bay11-7082 (purchased from Selleck) was used for NF-κB activity control. Stromal cells were subsequently exposed to several different forms of cytotoxicity, with the resulting phenotype recorded in time, and the relevant gene expression analyzed. The resulted conditioned culture medium produced from cells processed in this way was collected for various detection of epithelial cells.
Even so, is TAK1 activated indirectly by upstream DDR signaling associated with activation of a core transcription factor, NF-κB complex involved in the broad-spectrum expression of the SASP? The NF-κB complex was previously reported to be mediated by mono-ubiquitination of IκB kinase subunit γ (IKKγ) in cytoplasm. After isolating nucleus from cytoplasmic proteins using a kit, the inventor finds that TAK1 phosphorylation is associated with nuclear translocation of p50 and p65, the two main subunits of NF-κB complex (FIG. 4).

PSC27 cells = experiment: DNA damage response foci, colony formation, cell cycle arrest and SA-β-Gal in PSC27 cells; format: cell-based, human
Method: Experimental Treatment In Vitro • 100 nM docetaxel (DTX), 100 nM paclitaxel (PTX), 200 nM vincristine (VCR), 50 μg/ml bleomycin (BLEO), 1 μM mitoxantrone (MIT), or 10 Gy ^137CS ionizating radiation (γ-radiation at 743 rad/min, RAD) was added to the culture medium when PSC27 cells grown to 80% (PSC27-Pre) to produce cell damage. After drug treatment for 6 hours, the cells were simply washed by PBS for 3 times and kept in the culture medium for 7 to 10 days, followed by subsequent experiments. […] Immunofluorescence and Histochemical Analysis • Mouse monoclonal antibody anti-phospho-Histone H2A.X (Ser139) (clone JBW301, Millipore) or mouse monoclonal antibody anti-Phosphor-53BP1 (Cat #sc-135748, Santa Cruz), and secondary antibody Alexa Fluor® 488 (or 594)-conjugated F(ab′)2 were added sequentially to slides on which cells were fixed. Nuclei were counterstained with 2 μg/ml of 4′,6-diamidino-2-phenylindole (DAPI). The most representative image was selected from the 3 observation fields for data analysis and result presentation. FV1000 laser scanning confocal microscopy (Olympus) was used to obtain cellular confocal fluorescence images to determine the extent of DNA damage. • Antibody anti-TAK1 used for histological IHC staining in clinical prostate, non-small cell lung cancer patients and breast cancer patients, was purchased from Proteintech, idib.

p38MAPK, JNK, ATM = experiment: Western blot of JNK, p38MAPK and ATM phosphorylation in damaged stromal cells; format: cell-based, human; details: Day 7 after bleomycin and/or 5Z-7
Method: The nitrocellulose filter membrane was blocked at room temperature for 1 h in the blocking solution (TBST containing 5% skim milk powder (0.1% Tween-20 in TBS)), incubated overnight at 4° C. in a primary antibody solution, rinsed at TBST room temperature for 3 times, each for 2 min. The corresponding secondary antibody conjugated with HRP prepared with the blocking solution was added, the filter membrane was incubated at room temperature for 0.5 h. The filter membrane was rinsed with PBST at room temperature for 3 times, each for 2 min.

With COc1cc(O)c2c(c1)/C=C/C[C@H](O)[C@H](O)C(=O)/C=C\C[C@H](C)OC2=O [5Z-7, 5z-7-oxozeaenol] the survival of mice ([1]; 5Z-7 alone) was “only slightly prolonged”, the “prolongation of disease-free survival” value ([1]; MIT/5Z-7 combination vs mitoxantrone alone, severe disease at tumor size 2000 mm^3) was “about 50%” and the “activation of TAK1 in damaged stromal cells” value (TAK1; bleomycin-treated PSC27, 500 nM 5Z-7, IP and in vitro kinase assay with MKK6) was “largely abolished”. For the same compound, the “physical interaction between TAK1 and TRAF6” value (TAK1; p-TAK1 antibody IP after bleomycin) was “abolished”, the “NF-κB transcriptional activity (reporter vector)” value (NF-κB complex; bleomycin plus inhibitor, luciferase reporter) was “significantly reduced” and the “phosphorylation of TAK1 and nuclear translocation of p50/p65” value (NF-κB complex; bleomycin-treated stromal cells, cytosolic and nuclear proteins) was “significantly inhibited”. The “inhibitory effect on NF-κB activation and IL-8 compared with the other inhibitors” value (NF-κB complex; vs LY294002, MK-2206, SB203580) was “stronger inhibitory effect”, the “colony forming ability of PSC27 cells” value (PSC27 cells; bleomycin and/or 5Z-7, Day 7) was “not associated with the inhibition of TAK1 activity” and the “single-cell level of DDR foci” value (PSC27 cells; bleomycin-treated cells, presence or absence of inhibitor) was “did not change significantly”. The “phosphorylation of JNK and p38MAPK” value (p38MAPK, JNK, ATM) was “decreased significantly” and the “phosphorylation status of ATM stimulated by DNA damage” value (p38MAPK, JNK, ATM) was “does not depend on whether TAK1 activity is inhibited”.
